Literature values in patent US20150101082A1, “PROCESSING SEEDS BY COLD PLASMA TREATMENT TO REDUCE AN APPARENT CONTACT ANGLE OF SEEDS COAT SURFACE” (priority 2012, published 2015).

Assays:
mice [1] = details: inhalation, 7 hours
rats = details: oral
mice [2] = details: oral

Row | SMILES | LC50 (mice [1]) [ppm] | LD50 (rats) [mg/kg] | LD50 (mice [2]) [mg/kg]
1 | Nc1ccccc1 [Aniline] | 175 |  | 
2 | NN [Hydrazine] |  | ~60 | ~60
